Measurements published in publication PMC5464773 (eLife, 2017).

Assays:
Mcl-1 = molecular target: T1, Mcl-1 (Homo sapiens, UniProt Q07820); test: Competition fluorescence polarization (anisotropy) with fluoresceinated BIM; assay type: binding; settings: competition FP source data
T1 construct: c-myc
Procedure: C-myc-tagged receptors were used for all Bcl-2 homologs, as previously described ([DeBartolo et al., 2012]; [Dutta et al., 2010]). Plates were mixed at 23°C for 3 hr. Plates were read again at 24 to check equilibration. Experiments were done in at least triplicate. Data were fit, as described for competition fluorescence anisotropy experiments in [Foight et al. (2014]), to a complete competitive binding model (equation 17 in [Roehrl et al. [2004]]) using a Python script.

Bcl-2 = molecular target: T2, Bcl-2 (Homo sapiens, UniProt P10415); test: as above; assay type: binding; settings: competition FP source data
T2 construct: c-myc
Procedure: (§1) Plates were mixed at 23°C for 3 hr. Plates were read again at 24 to check equilibration. Experiments were done in at least triplicate.

Bcl-w = molecular target: T3, Bcl-w (Homo sapiens, UniProt Q92843); test: as above; assay type: binding; settings: competition FP source data
T3 construct: c-myc
T3 sequence (Q92843 1-193): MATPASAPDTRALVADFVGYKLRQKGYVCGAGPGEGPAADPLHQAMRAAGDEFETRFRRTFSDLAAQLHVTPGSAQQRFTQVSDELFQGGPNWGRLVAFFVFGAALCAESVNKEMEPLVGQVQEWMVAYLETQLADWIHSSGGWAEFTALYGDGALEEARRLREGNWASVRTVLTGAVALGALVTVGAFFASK
Procedure: as §1

Bcl-xL = molecular target: T4, Bcl-xL (Homo sapiens, UniProt Q07817); test: as above; assay type: binding; settings: competition FP source data
T4 construct: c-myc
Procedure: as §1

Bfl-1 = molecular target: T5, Bfl-1 (Homo sapiens, UniProt Q16548); test: as above; assay type: binding; settings: competition FP source data
T5 construct: c-myc
T5 sequence (Q16548 1-175): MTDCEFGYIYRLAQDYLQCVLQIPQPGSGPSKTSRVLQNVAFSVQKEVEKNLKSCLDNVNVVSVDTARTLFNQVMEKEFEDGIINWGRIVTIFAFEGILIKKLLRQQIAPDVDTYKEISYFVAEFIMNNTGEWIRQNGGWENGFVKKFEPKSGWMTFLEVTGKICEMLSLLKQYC
Procedure: as §1

[1] = test system: BCR-ABL-expressing B-lineage acute lymphoblastic leukemia cells dependent on Mcl-1; settings: iBH3 fits Mcl-1, sigmoidal dose-response (variable slope)
Procedure: (§2) As an additional test for on-pathway activity, we measured cytochrome c release in the same engineered cell lines in response to peptide treatment, using iBH3 profiling ([Ryan et al., 2016]).
(§3) The creation and characterization of the BCR-ABL-expressing B-lineage acute lymphoblastic leukemia suspension cell lines with engineered dependencies on human versions of anti-apoptotic genes is detailed in [Koss et al. (2016)]). Cells were grown in RPMI (Life Technologies, Carlsbad, CA) with 10% fetal bovine serum, 2 mM L-glutamine, 10 mL/L 100x Pen/Strep (Life Technologies # 15140122), 25 mM HEPES and 10 mL/L 100x NEAA (Life Technologies, 11140050). The adherent cell lines PC-3 (RRID: CVCL_0035) and SF295 (RRID: CVCL_1690) are from the NCI60 panel ([Lorenzi et al., 2009]) and were grown in RPMI (Life Technologies) with 10% fetal bovine serum, 2 mM L-glutamine and 10 mL/L 100x Pen/Strep (Life Technologies # 15140122 ). Cell line identities were confirmed by STR profiling. The Lookout Mycoplasma PCR detection kit (Sigma) was used to detect mycoplasma infection.
(§4) Cells were suspended in MEB buffer (150 mM mannitol, 50 mM KCl, 10 mM HEPES, 5 mM succinic acid, 20 μM EGTA, 20 μM EDTA, 0.1% BSA, final pH 7.4) at 0.5*10^6 cells/mL (adherent lines) or 2 *10^6 cells/mL (suspension lines). Cell suspension was added to a 384 non-binding well plate (10 μL/well) containing peptides at 2X final concentration in MEB with 20 μg/mL digitonin. Plates were incubated at 25°C for 1 hr. To terminate exposure, 10 μL of 4% formaldehyde in PBS was added to each well, plates were incubated for 10 min before addition of 10 μL N2 buffer (1.7M Tris, 1.25M glycine, pH 9.1) for 5 min. 10 μL of staining buffer (2% Tween20, 10% BSA, PBS) containing 10 μg/mL Hoechst 33342 and 1.25 μg/mL anti-cytochrome c Alexa647 conjugate (BioLegend clone 6H2.B4) was added to each well before sealing the plate and shaking overnight. The median fluorescence of the cytochrome c channel of Hoechst positive singlets was recorded by an IntelliCyt iQue Screener Plus. Cytochrome c release was determined by normalizing the median fluorescence intensity (MFI) data to positive control wells (Alamethicin) and negative control wells (DMSO) as follows: Cytochromecrelease=1−(MFIsample−MFIAlamethicin)/(MFIDMSO−MFIAlamethicin)

[2] = test system: BCR-ABL-expressing B-lineage acute lymphoblastic leukemia cells dependent on Bcl-2; test: iBH3 profiling, cytochrome c release; assay type: cell-based; settings: iBH3 fits Bcl-2, sigmoidal dose-response (variable slope)
Procedure: as §2, §3, §4

PC-3 cells = test: iBH3, cytochrome c release in unprimed cells (BAK/BAX activator function); assay type: cell-based
Procedure: (§5) To test the possibility that FS1, FS2 or FS3 may directly activate BAK and BAX, we measured cytochrome c release in two ‘unprimed’ cell lines (PC-3 and SF295). Unprimed cells require BAK/BAX activators to release cytochrome c ([Certo et al., 2006]).
(§6) Cell line identities were confirmed by STR profiling.
(§7) Plates were incubated at 25°C for 1 hr.

SF295 cells = assay type: cell-based
Procedure: as §5, §6, §7

[3] = iBH3 fit PC-3, sigmoidal dose-response (variable slope), fit of 4 replicates
[4] = SF295 cells, iBH3 fit, sigmoidal dose-response (variable slope)

T2 sequence (P10415 whole entry): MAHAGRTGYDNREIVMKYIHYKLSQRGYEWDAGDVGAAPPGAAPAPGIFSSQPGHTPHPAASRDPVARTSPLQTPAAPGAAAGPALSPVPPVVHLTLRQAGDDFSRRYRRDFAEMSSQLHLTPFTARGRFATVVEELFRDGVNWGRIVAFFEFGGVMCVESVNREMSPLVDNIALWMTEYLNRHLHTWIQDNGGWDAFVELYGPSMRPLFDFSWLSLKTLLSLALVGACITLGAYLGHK
T4 sequence (Q07817 whole entry): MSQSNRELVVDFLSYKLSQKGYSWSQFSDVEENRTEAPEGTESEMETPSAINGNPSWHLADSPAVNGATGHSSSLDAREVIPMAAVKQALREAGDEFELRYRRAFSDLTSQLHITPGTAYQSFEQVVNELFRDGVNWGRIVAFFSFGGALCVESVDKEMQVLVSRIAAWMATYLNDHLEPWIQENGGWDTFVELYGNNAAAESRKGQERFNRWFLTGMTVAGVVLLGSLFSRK
T1 sequence (Q07820 whole entry): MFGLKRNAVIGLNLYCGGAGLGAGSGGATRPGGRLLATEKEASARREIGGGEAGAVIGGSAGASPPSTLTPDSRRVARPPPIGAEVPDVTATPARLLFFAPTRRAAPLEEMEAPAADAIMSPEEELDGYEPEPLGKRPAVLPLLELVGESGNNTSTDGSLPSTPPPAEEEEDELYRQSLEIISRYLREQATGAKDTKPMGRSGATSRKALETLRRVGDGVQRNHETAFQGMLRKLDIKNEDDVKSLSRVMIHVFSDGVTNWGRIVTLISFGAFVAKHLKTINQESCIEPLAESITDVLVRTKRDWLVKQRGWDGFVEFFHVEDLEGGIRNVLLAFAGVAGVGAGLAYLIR

## CC[C@H](C)[C@H](NC(=O)[C@H](CCC(=O)O)NC(=O)[C@H](CCCNC(=N)N)NC(=O)[C@H](C)NC(=O)[C@H](Cc1c[nH]c2ccccc12)NC(=O)[C@H](CCC(N)=O)NC(C)=O)C(=O)NCC(=O)N[C@@H](C)C(=O)N[C@@H](CCC(N)=O)C(=O)N[C@@H](CC(C)C)C(=O)N[C@@H](CCCNC(=N)N)C(=O)N[C@@H](CCCNC(=N)N)C(=O)N[C@@H](CCSC)C(=O)N[C@@H](C)C(=O)N[C@@H](CC(=O)O)C(=O)N[C@@H](CC(=O)O)C(=O)N[C@@H](CC(C)C)C(=O)N[C@@H](CC(N)=O)C(=O)N[C@@H](C)C(=O)N[C@@H](CCC(N)=O)C(=O)N[C@@H](Cc1ccc(O)cc1)C(=O)N[C@@H](CCC(=O)O)C(=O)N[C@@H](CCCNC(=N)N)C(N)=O [PUMA, reference compound]
Mcl-1; replicate 1
  Ki (M) Mcl-1: 2.28e-09 M
Mcl-1; replicate 2
  Ki (M) Mcl-1: 3.28e-09 M
Mcl-1; replicate 3
  Ki (M) Mcl-1: 1.63e-09 M
Bcl-2; replicate 1
  Ki (M) Bcl-2: 4.27e-09 M
Bcl-2; replicate 2
  Ki (M) Bcl-2: 9.91e-09 M
Bcl-2; replicate 3
  Ki (M) Bcl-2: 2.68e-09 M
Bcl-w; mean of three replicates, values above 5 μM are reported as > 5 μM in the figures, read-out: mean Ki (M) Bcl-w
  Ki: 2.97e-09 M
Bcl-w; replicate 1
  Ki (M) Bcl-w: 4.44e-09 M
Bcl-w; replicate 2
  Ki (M) Bcl-w: 4.04e-09 M
Bcl-w; replicate 3
  Ki (M) Bcl-w: 4.31e-10 M
Bcl-xL; replicate 1
  Ki (M) Bcl-xL: 2.23e-09 M
Bcl-xL; replicate 2
  Ki (M) Bcl-xL: 4.17e-09 M
Bcl-xL; replicate 3
  Ki (M) Bcl-xL: 4.19e-10 M
Bfl-1; mean of three replicates
  Ki: 4.84 nM
Bfl-1; replicate 1
  Ki (M) Bfl-1: 4.9e-09 M
Bfl-1; replicate 2
  Ki (M) Bfl-1: 5.4e-09 M
Bfl-1; replicate 3
  Ki (M) Bfl-1: 4.23e-09 M
[1]
  HillSlope (best-fit value): ~ 1.358
[1]; fit of 3 replicates
  Bottom (best-fit value): ~ -276.9
  Top (best-fit value): 0.9859
[2]; log of EC50, x axis Log [Peptide M]
  LogEC50 (best-fit value): -7.436
[2]
  HillSlope (best-fit value): 1.78
[2]; fit of 3 replicates
  Bottom (best-fit value): 0.2923
  Top (best-fit value): 1.01
PC-3 cells; PC-3, unprimed, iBH3, 25°C, 1 hr
  peptide concentration leading to cytochrome c release in unprimed cells: observed cytochrome c release
PC-3 cells; iBH3 fit PC-3, log of EC50, x axis Log [Peptide M], sigmoidal dose-response (variable slope)
  LogEC50 (best-fit value): -6.309
PC-3 cells; iBH3 fit PC-3, sigmoidal dose-response (variable slope)
  HillSlope (best-fit value): 1.567
PC-3 cells; [3]
  Bottom (best-fit value): 0.1477
  Top (best-fit value): 0.7911
SF295 cells; SF295, unprimed, iBH3, 25°C, 1 hr
  peptide concentration leading to cytochrome c release in unprimed cells: observed cytochrome c release
SF295 cells; [4]
  Bottom (best-fit value): -0.02393
  HillSlope (best-fit value): 0.4226
  Top (best-fit value): 0.958
SF295 cells; SF295 cells, iBH3 fit, sigmoidal dose-response (variable slope), log of peptide concentration in M
  LogEC50 (best-fit value): -5.945
